A short description of this data set: Human HepG2 cell viability assay in 384 well format. In kind it is toxicity, cell-based. The note with it: HepG2 cells, read-out: Inhibition. More on the design: dose 125 nL, time 70.5 hour; cytotoxicity at 70.5 h: concentration not given beside the values.
Turning to `O=C(CN1CCc2ccccc2C1)NCc1ccco1`, the cytotoxicity at 70.5 h was determined as 3.48%.

For `COCCc1noc(CN2CCCC2c2noc(C)n2)n1` (centres undefined), the cytotoxicity at 70.5 h is -0.394%. On to `CN1CCN(CC2CCN(C(=O)CCC3CCCCC3)CC2)CC1`, for which the cytotoxicity at 70.5 h was -2.91%. Turning to `O=S(=O)(NCC1COc2ccccc2C1)N1CCCCCC1` (centres undefined), the cytotoxicity at 70.5 h is -7.48%.

As to `Cc1ccc(C(=O)NC2CCN(Cc3nc(CC(C)C)no3)CC2)s1`, the cytotoxicity at 70.5 h came out at 1.36%. In the case of `CCCc1noc(CN2CCC(NC(=O)c3ccc(C)s3)CC2)n1`, the cytotoxicity at 70.5 h is -4.33%. To `Nc1ncc(C(=O)N2CCN(c3nccs3)CC2)cc1Cl` belongs -4.3%.

Consider `CCOC(=O)NCCC(=O)NC(C)(C)c1ccc2c(c1)OCCO2`, for which the cytotoxicity at 70.5 h is -6.26%. The value for `COCC(NC(=O)c1ccco1)c1cccc(C(F)(F)F)c1` (centres undefined) was -3.48%. For the compound `O=C(C(CNCc1cccs1)c1ccccc1)N1CCOCC1` (centres undefined), the cytotoxicity at 70.5 h is 7.5%.

For `CCn1nc2c(cc1=O)CN(Cc1nc(C)c3ccccc3n1)CC2`, the cytotoxicity at 70.5 h was -6.18%.

Take `CC(c1cccnc1)N(C)Cc1ccccn1` (centres undefined): the cytotoxicity at 70.5 h was -7.62%.

For `O=C(C(CNCc1cccnc1)c1ccccc1)N1CCOCC1` (centres undefined), the cytotoxicity at 70.5 h is -8.37%. Turning to `CCC(C)(CCO)NC(=O)c1ccon1` (centres undefined), the cytotoxicity at 70.5 h came out at 24.8%. As for `Cc1cc(NC(=O)c2ccc(F)cc2F)n(C)n1`, the cytotoxicity at 70.5 h was -10.6%. To `Cc1cc(NC(=O)c2ccc(F)cc2Cl)n(C)n1` belongs 6.57%. Turning to `COc1cc(Cl)c(NCc2c(C)noc2C)cc1OC`, the cytotoxicity at 70.5 h was -7.06%.

On to `COc1cc(NCc2c(C)noc2C)c(C(=O)N(C)C)cc1OC`, for which the cytotoxicity at 70.5 h is -8.14%. The value for `Cc1cc(NC(=O)COC(=O)c2ccc(F)cc2Br)n(C)n1` was -12.3%; that for `Cc1cc(NC(=O)c2ccc(F)cc2Br)n(C)n1` was -4.35%; that for `O=c1[nH]ncc(NCCOc2cccc(Br)c2)c1Cl` was -5.68%. To `CN(CC(=O)Nc1cc(C(C)(C)C)n[nH]1)S(C)(=O)=O` belongs 12%; to `Cc1nn(CC(O)CN2CCC(C)CC2)c(=O)c(C#N)c1C` (centres undefined), -17%; to `CCCn1nnnc1CN1Cc2ccccc2CC1c1nnc(C)o1` (centres undefined), -8.77%.

As to `Cn1c(C(=O)N(CC(N)=O)C2CCCC2)cc(Cl)c1Cl`, the cytotoxicity at 70.5 h was -10.6%. In the case of `C=C(C)CN1CCCC(CNS(C)(=O)=O)C1` (centres undefined), the cytotoxicity at 70.5 h is -4.35%. As to `Cc1ccc(-c2cc(CN3CCc4cncnc4C3)on2)cc1`, the cytotoxicity at 70.5 h is -10.9%. As to `CCN(C(=O)COc1nc(Cc2ccc(F)cc2)no1)C1CC1`, the cytotoxicity at 70.5 h was -5.41%. To `CN(CC(F)(F)F)C(=O)COc1nc(Cc2ccc(F)cc2)no1` belongs -7.01%; to `Cc1cnn(CCNCC(O)c2ccc(S(C)(=O)=O)cc2)c1` (centres undefined), -11.8%.

As for `Cc1cccc(N2N=C(C(=O)NC(C)CCc3ccco3)CCC2=O)c1` (centres undefined), the cytotoxicity at 70.5 h came to 28.5%. To `CC(C)CCN(C(=O)c1cccc(NC(N)=O)c1)C1CC1` belongs -17.2%; to `CC(C)COC1CCN(C(=O)c2ccc(C(F)(F)F)[nH]c2=O)CC1`, -4.17%. Take `c1cc(-c2nnc(C3(c4ccc5c(c4)OCO5)CCOCC3)o2)ccn1`: the cytotoxicity at 70.5 h was -11.2%. Regarding `NC(=O)Nc1cccc(C(=O)N(Cc2ccncc2)C2CC2)c1`, the cytotoxicity at 70.5 h is -10.2%.

Consider `O=C(Nc1cc(-c2ccccc2)on1)N1CCN(CCO)CC1`, for which the cytotoxicity at 70.5 h was -6.53%. To `CC(SCc1cc(Br)cc2cccnc12)C(N)=O` (centres undefined) belongs -16%; to `CC(SCc1ccc(Br)c2cccnc12)C(N)=O` (centres undefined), 18.2%; to `COCCn1ccc2ccc(NC(=O)NCc3noc(C)n3)cc21`, 2.1%. The value for `CC(C)(C#N)CCCS(=O)(=O)c1nccn1-c1cccc(F)c1` was -10.9%; that for `CC(SCCS(C)(=O)=O)c1nc(Cc2ccc(F)cc2)no1` (centres undefined) was -0.925%; that for `CCC(=O)N(CC)CCc1nccs1` was -9.4%. `Cc1ccc(C(=O)N(C)C)cc1NC(=O)COCC1CC1`: the cytotoxicity at 70.5 h is -6.84%. For `CCN(CCc1nccs1)C(=O)c1sccc1C`, the cytotoxicity at 70.5 h was -9.19%. To `COc1ccc(C(=O)NCCCNc2ncccn2)cc1F` belongs 3.94%. As for `OC(COCc1ccccc1)CSc1nnc2ccccn12` (centres undefined), the cytotoxicity at 70.5 h was -5.06%. To `CCCc1noc(CCC(=O)Nc2cc(C(F)(F)F)c[nH]c2=O)n1` belongs -6.41%. To `O=C(c1nc(=O)[nH][nH]1)N1CCCN(CC2CCCCC2)CC1` belongs -7.64%; to `CNC(=O)c1ccc(NC(=O)NC(C)c2cc(C)oc2C)cc1` (centres undefined), -8.2%. To `CN(C)CCN(Cc1ccccc1)C(=O)C1=NNC(=O)CC1` belongs -6.1%. Consider `CN(Cc1cccs1)C(=O)c1ccc(=O)n(C)c1`, for which the cytotoxicity at 70.5 h was -5.37%. `CCOc1ccc(C(=O)NCCCNc2ncccn2)cc1`: the cytotoxicity at 70.5 h came to 17.7%. The value for `NC(=O)C1=NC2=NS(=O)(=O)c3ccccc3N2N1Cc1ccccc1Cl` was -7.31%; that for `Cn1c(N)nnc1SCc1cc(Br)ccc1Cl` was -10.9%.

With `Cn1cc(S(=O)(=O)Nc2c(F)cccc2N2CCCC2)cn1`, the cytotoxicity at 70.5 h is -4.97%. To `COCCNc1ccccc1CNC(=O)C1CCCOC1` (centres undefined) belongs -2.32%; to `CCOc1ccc(NC2CCN(C3CC3)C2=O)cn1` (centres undefined), -1.16%. The value for `Cc1cc(S(=O)(=O)Nc2onc(C)c2C)sc1C` was -5.02%; that for `CC(C)(C)Cc1nnc(NCc2cccc(C#N)c2)o1` was -1.69%; that for `CN(Cc1ncnn1C)C(=O)Nc1ccc(OC(F)F)cc1` was -8.26%. The value for `Cc1ncc2c(n1)CN(CCOCC(F)(F)F)CC2` was -4.14%; that for `FC(F)(F)COCCN1CCc2cncnc2C1` was -2.38%. Turning to `CCc1nc(C2CCCN2C(=O)c2ccc(=O)n(CC)n2)no1` (centres undefined), the cytotoxicity at 70.5 h amounted to 4.08%.

Regarding `CCn1nc(C(=O)N2CCCC2c2noc(C)n2)ccc1=O` (centres undefined), the cytotoxicity at 70.5 h is -3.84%.

For `CCN(CC)c1ccc(NC(=O)NCC2CCOC2)cn1` (centres undefined), the cytotoxicity at 70.5 h was -12.2%.

For `CC(C)(CNc1cn[nH]c(=O)c1Cl)c1ccc2c(c1)OCCO2`, the cytotoxicity at 70.5 h was -13.9%. `Cc1noc(C2CCN(C(C)c3nc(C4CC4)no3)CC2)n1` (centres undefined): the cytotoxicity at 70.5 h is -16.9%. The value for `CCc1ccc(CCC(=O)NCc2nnc[nH]2)cc1` was -19.3%; that for `CC(c1nc(C(C)(C)C)no1)N1CCC(N2CCCC2)CC1` (centres undefined) was 4.89%. Take `O=C(C1CSc2ccccc2O1)N1CCN(CCO)CC1` (centres undefined): the cytotoxicity at 70.5 h is -14.3%. The value for `CNC(=O)CN(C)c1cncc(OCC(C)C)n1` was -5.85%; that for `CCC(NC(=O)c1cccc2[nH]ccc12)C(=O)N1CCOCC1` (centres undefined) was -6.49%. On to `O=C(CCc1ccc(Br)cc1)NCc1nnc[nH]1`, for which the cytotoxicity at 70.5 h was -9.74%. To `CCn1c(CN(C)C(C)CSC)nc2c(F)cccc21` (centres undefined) belongs -3.45%; to `CN(C)Cc1nc(C(C)(C)NC(=O)c2ccnn2C)no1`, 8.69%.

Regarding `Cc1ccc(C)c(OCC(O)CN(C)CC(=O)Nc2cc(C)on2)c1` (centres undefined), the cytotoxicity at 70.5 h came out at 3.48%. As to `Cc1ccc(OCCC(=O)N(C)CC(=O)Nc2cc(C)on2)c(C)c1`, the cytotoxicity at 70.5 h was -4.37%.

As for `COc1ccc2nc(C)c(C(=O)NCCN3CCS(=O)(=O)CC3)cc2c1`, the cytotoxicity at 70.5 h was -1.47%.

As to `Cn1nccc1C(=O)NC(C)(C)c1noc(C(C)(C)C)n1`, the cytotoxicity at 70.5 h is -16.4%. The value for `CCN1CCN(CCCNC(=O)c2cc3ccc(C)cc3nc2C)CC1` was -2.81%; that for `CNC(=O)C(CCSC)NC(=O)c1ccc2ccccc2n1` (centres undefined) was -11%. To `COCC(O)CN(C)C(=O)NC1CCN(S(C)(=O)=O)CC1` (centres undefined) belongs -7.83%; to `Cc1nccn1-c1ncccc1CNC(=O)c1ccc(O)nc1`, -10.6%; to `Cc1ccccc1C(C)NC(=O)c1ccc(=O)n(C)c1` (centres undefined), -4.64%. With `Cc1nnc(CN(Cc2cccc(Cl)c2)C(C)C)o1`, the cytotoxicity at 70.5 h was -16.1%. Take `CS(=O)(=O)Cc1cc(Cl)c2c(c1)OCCCO2`: the cytotoxicity at 70.5 h is -3.38%. As to `CC(C)C(C)(C#N)NC(=O)Cn1cc(-c2ccccc2)cn1` (centres undefined), the cytotoxicity at 70.5 h is -5.67%. To `Cc1noc(C)c1CNc1c(N2CCCC2)cccc1N1CCCC1` belongs -5.49%. `CSCCC(NC(=O)c1ccc2ccccc2n1)C(=O)O` (centres undefined): the cytotoxicity at 70.5 h worked out at 4.89%.

Regarding `CC(C)(C)n1cc(C(=O)O)c(-c2ccc(F)cc2F)n1`, the cytotoxicity at 70.5 h is -18.2%. The value for `CC(C)C(C)(C#N)NC(=O)Cn1cc(Cl)cn1` (centres undefined) was -6.35%; that for `CCN(Cc1csc(CS(C)(=O)=O)n1)c1cccc(F)c1` was -7.29%; that for `Cc1nccn1-c1ccc(CNC(=O)c2ccc([S+](C)[O-])cc2)cn1` (centres undefined) was -3.4%. As for `CS(=O)(=O)CCS(=O)(=O)Cc1cc(Cl)c2c(c1)OCCCO2`, the cytotoxicity at 70.5 h was -5.05%.

In the case of `CCc1c(C)nc2ccccc2c1N1CCC(C(=O)NC)CC1`, the cytotoxicity at 70.5 h was -5.91%. In the case of `CCc1c(C)nc2ccccc2c1N1CCC(NC(C)=O)CC1`, the cytotoxicity at 70.5 h is -6.65%. Turning to `CC1CN(C(=O)CCc2cc(Br)cs2)CCO1` (centres undefined), the cytotoxicity at 70.5 h is -4.33%. The value for `CS(=O)(=O)CCCNC1(c2ccc(Br)cc2)CCC1` was -5.79%; that for `Cc1nnc(CN(Cc2ccc(Cl)c(Cl)c2)C2CC2)o1` was -3.07%; that for `Cc1cc(C(=O)N2CCc3c(ncn3CCc3ccccc3)C2)on1` was -7.15%. Consider `CC(C)N1CCC(N(C)c2ccnc(N(C)C)n2)CC1`, for which the cytotoxicity at 70.5 h was -2.26%. Consider `Cc1cc(C)c(C(=O)N2CCc3c(ncn3CCc3ccccc3)C2)[nH]1`, for which the cytotoxicity at 70.5 h is -8.62%. Turning to `CCOc1cc(CN(C)CC(=O)O)ccc1OC(F)F`, the cytotoxicity at 70.5 h worked out at 6.63%. The value for `Cc1sc(Br)cc1S(=O)(=O)NCCCN` was -8.71%.
